{"source": "patent US20120135002A1", "about": "“Compounds and Methods for the Treatment of Cancer” (priority 2009, published 2012)", "key": {"HL60": {"test_system": "HL60", "assay": "Transcriptome (microarray) analysis of treated HL60 cells", "format": "cell-based, human", "settings": "for number of genes modulated by the three different agents: HL60 cell line, genes affected by DFO, DFX and mAb A24 together"}, "AML cells lines": {"test_system": "AML cells lines", "assay": "CD14 and CD11b monocytic marker expression in AML cell lines", "format": "cell-based", "procedure": "Peripheral blood cells from AML patients and healthy donors was analyzed after obtaining their written informed consent (please refer to supplementary table 2 for additional information). Peripheral blood was collected at the initial diagnosis previously to treatment administration. Mononuclear cells were separated by Ficoll-hypaque (PAA laboratories) density centrifugation and resuspended in IMDM medium (Invitrogen) supplemented with 15% fetal calf serum (FCS) (Hyclone), 100 ng/ml Stem Cell Factor (SCF), 10 ng/ml Interleukin 3 (IL-3) and 25 ng/ml FLT3-L (all purchased from R&D Systems). HL60 and U937 cell lines were a kind gift from J. M. Cayuela (Saint-Louis Hospital, Paris). Cells were cultured in RPMI-1640 medium (Invitrogen) supplemented with 5% FCS and antibiotics.\nThe ability of iron deprivation to override blockade of AML cells differentiation was tested. In AML cells lines, monocytic markers CD14 and CD11b (which are induced by the vitamin D3 (VD), a monocytic differentiating agent) were induced by iron deprivation by A24 mAb, DFO and DFX. Induction of cell surface markers was accompanied by characteristic cytological modifications of monocytes. Iron deprivation induced cytoplasm enlargement, loss of cytoplasm basophilia and azurophilic granules. […]"}, "c-Jun, c-Fos": {"test_system": "c-Jun, c-Fos", "assay": "c-Jun and c-Fos expression in HL60 cells", "format": "cell-based", "settings": "VD 250 nM, A24 10 μg/ml, DFO 5 μM, DFX 3 μM", "procedure": "FIG. 4 depicts the change in c-Jun expression following treatment of HL60 cells with vitamin D3 (VD, 250 nM), A24 (A24, 10 μg/ml), deferoxamine (DFO, 5 μM) or deferasirox (DFX, 3 μM).\nFIG. 5 depicts the c-Fos and c-Jun mRNA levels (evaluated by quantitative RT-PCR and normalized to GAPDH mRNA levels) in HL60 cells treated for 48 h with A24 (A24, 10 μg/ml); deferoxamine (DFO, 5 μM); or deferasirox (DFX, 3 μM) (mean±SEM, n=4).\nTotal RNA was extracted using Nucleospin RNA II (Macherey-Nagel). Following DNAse treatment, first-strand cDNA was synthesized using a SuperScript II reverse transcriptase (Invitrogen). Quantitative real-time PCR was performed with a Chromo-IV PCR System (MJ Research) and PCR products were quantified using SybrGreen Technology (Jumpstart mastermix, Sigma Aldrich). Results of real-time quantitative PCR were interpreted using the delta-delta Ct method (Livak et al. (2001) Methods 25:402-408). The complete list of primer sequences used is available in supplementary data section, table 4.\nBy comparing (with a non-supervised analysis) the pattern of genes induced by VD and iron-chelating agents, a high similarity was found among modulated genes. Thirty of the 105 genes modulated by iron deprivation were shared with VD modified genes. This finding underscores the potential similarities between both differentiation approaches. […]"}, "[1]": {"test_system": "squamous cell carcinoma and prostatic adenocarcinoma", "settings": "in vitro; cited from earlier work"}}}
{"smiles": "CC(=O)N(O)CCCCCNC(=O)CCC(=O)N(O)CCCCCNC(=O)CCC(=O)N(O)CCCCCN", "note": "[DFO]", "values": [{"measurement": "number of genes modulated by the three different agents", "setting": "HL60", "result": 105}]}
{"smiles": "O=C(O)c1ccc(-n2nc(-c3ccccc3O)nc2-c2ccccc2O)cc1", "note": "[DFX, 4-[3,5-bis(2-hydroxyphenyl)-[1,2,4]triazol-1-yl]benzoic acid]", "values": [{"measurement": "number of genes modulated by the three different agents", "setting": "HL60", "result": 105}, {"measurement": "monocytic markers CD14 and CD11b", "setting": "AML cells lines", "result": "induced"}]}
{"smiles": "C=C1CC[C@H](O)C/C1=C/C=C1\\CCC[C@]2(C)[C@@H]([C@H](C)CCCC(C)C)CC[C@@H]12", "note": "[VD, cholecalciferol]", "values": [{"measurement": "markers of granulocyte differentiation / neutrophils (ELA2, PRTN3, CLC, AZU)", "setting": "HL60; HL60, gene expression", "result": "down-regulated"}, {"measurement": "markers of monocytes or activated macrophages (SERPINB8, ITGB2, TREML2, ITGAM)", "setting": "HL60; HL60, gene expression", "result": "up-regulated"}, {"measurement": "similarity of genes targeted by iron deprivation with VD", "setting": "HL60; genome screening", "result": 30, "unit": "%"}, {"measurement": "genes of the 105 modulated by iron deprivation shared with VD modified genes", "setting": "HL60; non-supervised analysis", "result": "Thirty"}, {"measurement": "monocytic markers CD14 and CD11b", "setting": "AML cells lines", "result": "induced"}, {"measurement": "c-Jun gene expression", "setting": "c-Jun, c-Fos", "result": "induced"}]}
{"smiles": "C=C1/C(=C\\C=C2/CCC[C@]3(C)[C@@H]([C@H](C)CCCC(C)(C)O)CC[C@@H]23)C[C@@H](O)C[C@@H]1O", "note": "[calcitriol, 1α,25-dihydroxycholecalciferol D3]", "values": [{"measurement": "antiproliferative activity", "setting": "[1]", "result": "exhibits antiproliferative activity"}]}
